The assay relates to TALL-104 cells, thapsigargin Ca2+ rise, fura-2 ratio. The experiment in a line: intracellular Ca2+ signaling inhibition in T cells – TALL-104 cells, fura-2 fluorescence, CherryPick01, mechanism study for lytic granule exocytosis inhibitor project (AID 720670). The conditions noted are these: at 30 µM; hits give high values.

Each structure is given as a SMILES string. Results filed as inconclusive are left out. Calls of active or inactive are those of the source.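 How the source made its calls: active means inhibition of the calcium rise above 50%; inconclusive means blank fluorescence over twice solvent-only controls, so no ratio; inactive means inhibition below 50%.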

For orientation: inhibition means the change of the read-out against control, counted positive when it falls. For the compound `CCc1nc2ccc(C(=O)NC3CCN(Cc4ccccc4)CC3)cn2c1N(C)Cc1cc2ccccc2s1`, the inhibition was 3.6% (inactive).
The same measure for `Cc1ccc(-n2nnc3c(=O)oc4ccccc4c32)cc1`: 116%; for `CN(c1ccccc1)S(=O)(=O)c1cccc(C(=O)NCCc2c[nH]c3ccccc23)c1`: 78.8%; for `COc1ccc(N2C(=O)CC(Sc3nnc(-c4ccccc4)o3)C2=O)cc1` (configuration not stated): -14.7% (inactive).
The same measure for `COc1ccc(-n2sc3ccccc3c2=O)cc1`: 19.8% (inactive); for `CC1=NOC(=O)/C1=C/c1ccc(-c2ccc(Cl)cc2)o1`: 18.1% (inactive).
As to `COc1ccc([N+](=O)[O-])cc1Nc1c2ccccc2nc2ccccc12`, the inhibition was 12.2% (inactive).
Next, `O=S(=O)(c1ccccc1)c1nnn2c1nc(NC1CCN(Cc3ccccc3)CC1)c1cc(Cl)ccc12`: 79.3%; `COc1cccc(-c2cnc3c(NC(C)=O)cc(-c4ccsc4)cn23)c1`: 39.6% (inactive); `CCOC(=O)c1cc(-c2csc(Nc3c(C)cc(C)cc3C)n2)on1`: 79.7%.
Next, `O=C1CC(Sc2nnnn2-c2ccccc2)C(=O)N1c1cccc(Cl)c1` (configuration not stated): 6.9% (inactive); `O=C1C=CC(=O)N1N(c1ccccc1)c1ccccc1`: 11.2% (inactive).
Next, `CC1=C(C)CS(=O)N(S(=O)(=O)c2ccc(Cl)cc2)C1` (configuration not stated): 11.4% (inactive); `N#Cc1c(Nc2ccccc2Cl)s[nH]c1=O`: 9.3% (inactive); `Cc1cc(N2CCN(c3nc(-c4ccc([N+](=O)[O-])cc4)cs3)CC2)c2ccccc2n1`: -35.4% (inactive).
As to `CCC(=C(c1ccc(OC)cc1)c1ccc(OC)cc1)c1cn(CC(O)CN2CCN(C)CC2)c2ccccc12` (configuration not stated), the inhibition is 41.5% (inactive).
Turning to `CC1(C(=O)OCC(=O)Nc2nc(-c3ccc(F)c(F)c3)cs2)CC1(Cl)Cl` (configuration not stated), the inhibition is 20.1% (inactive).
Next, `CCOc1cc(CNCCc2ccc(S(N)(=O)=O)cc2)ccc1OCc1ccc(Cl)cc1`: 63.5%; `CCc1ccc(/C=C2/Sc3ccccc3N(CC(=O)NCCCN3CCOCC3)C2=O)cc1`: 3.8% (inactive).
For `CCCS(=O)(=O)Nc1ccc(Nc2c3ccccc3nc3ccccc23)c(OC)c1`, the inhibition is 67.1%.
Next, `O=c1c2ccc(F)cc2sn1-c1ccccc1`: 7.1% (inactive); `O=C(Nc1ccc(F)cc1)c1nc(S(=O)(=O)Cc2ccccc2)ncc1Cl`: 75.7%; `CC1COCC(C)N1C1=C(Cl)C(=O)c2ccccc2C1=O` (configuration not stated): 27% (inactive).
Consider `CCOC(=O)c1c(NC(=O)COc2ccccc2OCC)sc2c1CC(C)(C)NC2(C)C`, for which the inhibition is 32.1% (inactive).
The same measure for `CC(C)(c1ccccc1)c1ccc(OCC(O)CNC2CCN(Cc3ccccc3)CC2)cc1` (configuration not stated): 27.1% (inactive).
For the compound `Cc1ccc(Nc2nc(NCc3ccco3)c3ccccc3n2)cc1`, the inhibition is -2.3% (inactive).
The same measure for `O=CNc1cc(-c2ccsc2)cn2c(-c3ccccc3)cnc12`: 11% (inactive); for `CCOC(=O)c1nnc(-c2ccccc2)nc1Sc1ccccc1Cl`: 21.2% (inactive); for `COc1ccccc1CNc1nc(NCc2ccc(C(C)C)cc2)c2sccc2n1`: 4.1% (inactive).
The same measure for `c1ccc(CNc2nc(NCC3CC3)nc3cc(-c4ccccc4)sc23)cc1`: 70%; for `COc1cccc(-c2cnc3c(NC(C)=O)cc(-c4ccccc4OC)cn23)c1`: 81.3%.
Regarding `CCOc1ccc2nc(C)cc(Nc3cccc([N+](=O)[O-])c3)c2c1`, the inhibition was 77.7%.
The same measure for `Cc1ccc(S(=O)(=O)n2ccc3c(OCCOCCNCc4ccc(F)cc4)cccc32)cc1`: 39.2% (inactive); for `CCc1ccc2nc(N(CCCN(C)C)C(=O)c3ccc(S(=O)(=O)N4CCc5ccccc5C4)cc3)sc2c1`: 50.9%; for `O=C(OCc1ccccc1)N(CCCCN(CCCNCc1ccccc1)C(=O)OCc1ccccc1)CCCNCc1ccccc1`: 57.3%.
In the case of `CCCNC(=O)Cn1sc2nc(C)cc(C)c2c1=O`, the inhibition was 19.7% (inactive).
As to `OC(CNCC(c1ccc(Cl)cc1Cl)c1c[nH]c2ccccc12)c1ccccc1` (configuration not stated), the inhibition is 34.1% (inactive).
`COC(=O)c1c(NC(=O)c2nc3ccccc3s2)sc2c1CC(C)(C)NC2(C)C`: the inhibition is 41.7% (inactive).
On to `CC(=O)Nc1ccc2c(=O)n(-c3ccccc3)sc2c1`, for which the inhibition was 16.3% (inactive).
Next, `CCCCC[C@@H](C)N1C[C@@H](COCc2ccccc2)Oc2cc(N3CC[C@H](N(C)C)C3)ccc2S1(=O)=O`: 37.6% (inactive).
Regarding `COC(=O)[C@]12CCCCC=C1N(Cc1cccc3ccccc13)C(=O)[C@H](CC(=O)NCc1ccc(OC)c(OC)c1)C2`, the inhibition is 6.3% (inactive).
In the case of `O=C(Cn1sc2ccccc2c1=O)Nc1ccc(F)cc1`, the inhibition was -21.1% (inactive).
With `Cn1sc(=O)c2cc(S(=O)(=O)NC3CC3)ccc21`, the inhibition is 91.3%.
Next, `COc1ccc(-c2cc(NC=O)c3ncc(-c4cccc(OC)c4)n3c2)cc1`: 22.8% (inactive); `O=C1Nc2ccc(Br)cc2/C1=C/C(=O)c1ccccc1`: 15.1% (inactive); `CCCCC[C@@H](C)N1C[C@@H](COCc2ccccc2)Oc2cc(N3CC[C@@H](N(C)C)C3)ccc2S1(=O)=O`: 21.3% (inactive).
With `CCOC(=O)c1c(CSc2ccccc2)n(C)c2cc(Br)c(O)c(CN(C)C)c12`, the inhibition was 70.2%.
Next, `CC(=O)Nc1ccc2sn(-c3ccccc3)c(=O)c2c1`: 12.6% (inactive).
The same measure for `CCCCn1c(=N)n(CC(=O)c2ccc(Br)s2)c2ccccc21`: 58.6%; for `CCCCC[C@@H](C)N1C[C@H](COCc2ccccc2)Oc2cc(N3CC[C@@H](N(C)C)C3)ccc2S1(=O)=O`: 37.4% (inactive).
With `COc1cccc(-c2cnc3c(NC=O)cc(-c4ccccc4)cn23)c1`, the inhibition is 66.5%.
The same measure for `N#Cc1ccc(NC(=O)Nc2ccc(Oc3ccc(NC(=O)Nc4ccc(C#N)cc4)cc3)cc2)cc1`: -1.1% (inactive); for `O=c1c2ccccc2sn1-c1ccccc1F`: 18.8% (inactive).
Consider `CCOc1ccc2nc(N(CCCN(C)C)C(=O)c3ccc(S(=O)(=O)N4CCc5ccccc5C4)cc3)sc2c1`, for which the inhibition was 69.4%.
With `O=c1c2ccccc2sn1-c1ccccc1`, the inhibition is -10.6% (inactive).
On to `COc1cc(-c2coc3c(C(=O)NCc4ccc(OC)c(OC)c4)cccc23)ccc1O`, for which the inhibition was 15.4% (inactive).
Next, `O=C(Cn1sc2ccccc2c1=O)NC12CC3CC(CC(C3)C1)C2`: 3% (inactive).
Next, `CN(C)CCCNC(=S)NCC(c1ccc(Cl)cc1Cl)c1c[nH]c2ccccc12` (configuration not stated): 10.4% (inactive); `COc1ccc(-c2cc(NC=O)c3ncc(-c4ccccc4)n3c2)cc1OC`: 31.5% (inactive); `COC(=O)c1c(NC(=O)c2ccc(C(=O)c3ccccc3)cc2)sc2c1CC(C)(C)NC2(C)C`: 73.3%.
On to `COc1cccc(NC(=O)Nc2nc(-c3ccc(OC)c(OC)c3)cs2)c1`, for which the inhibition is 90.9%.
As to `COc1ccccc1CNc1nc(NCc2ccc3occc3c2)c2sccc2n1`, the inhibition is 8.8% (inactive).

The record behind these values is PubChem BioAssay AID720670 (NMMLSC, 2013).
